Like-named read-outs stand apart in the source and are kept apart here. Where no end group is shown, it is not given here.

The record followed here is patent US20120053128A1, “Method of inhibiting angiogenesis” (XAVIER UNIVERSITY, priority 2010, published 2012).

Data set [1] in a line: MDA-MB-231 cell viability (CellTiter 96 AQuous One). The class given is cell-based, human. Conditions: human, MDA-MB-231 human breast cancer cells; MDA-MB-231 cells, incubated two days, apoEdp about 6 to about 300 μM; read-out: 50% cytotoxic dose. The procedure: (§1) To determine whether apoEdp affects cell survival, cell viability of human umbilical vein endothelial cells (HUVECs) and MDA-MB-231 human breast cancer cells was determined by using CellTiter 96® AQuous One solution cell proliferation kit (Promega, Madison, Wis.).
(§2) HUVECs were obtained from Lonza (Walkersville, Md.) and were maintained in endothelial cell basal medium (EBM-2) (Lonza, Walkersville, Md.) supplemented with 10% fetal bovine serum (FBS) and growth factors. (bullet kit, Lonza, Walkersville, Md.) HUVECs were used between passages 2-6. Human Breast Cancer cells MDA-MB-231 were obtained from the American Type Tissue Collection and cultured in Dulbecco's Modified Eagle's medium supplemented with 10% fetal bovine serum, 0.1 mg/mL streptomycin and 25 U/mL penicillin.
(§3) The MDA-MB-231 cells were in 96-well plates at about 5,000 cells per well. The MDA-MB-231 cells were then allowed to adhere to the plate with apoEdp in various concentrations in the range of about 6 μM to about 300 μM. The cells were incubated for two days, and cell numbers were determined using the CellTiter 96® AQuous One Solution cell proliferation kit. (Promega, Madison, Wis.)

The test system of data set [2] is MDA-MB-231 human breast cancer cells. Described as above. As to conditions: MDA-MB-231 cells, apoEdp up to 300 μM. It counts as cell-based. The method, then: as §1, §2, §3
The test system of data set [3] is VEGF-induced angiogenesis. The data set is described as follows: Rabbit corneal micropocket assay of VEGF-induced angiogenesis. The class given is in vivo, New Zealand White Rabbits. As to conditions: rabbit eye, 1% apoEdp eye drops 50 μL topically five times per day for five days, versus saline drops. The procedure: The effect of apoEdp on angiogenesis in vivo was observed by testing its inhibitory effect on VEGF-induced angiogenesis in a corneal micropocket assay of a rabbit eye model. A corneal micropocket was created with a modified von Graefe cataract knife in each eye of several 2-3 pound New Zealand White Rabbits. A micropellet of 500 μm by 500 μm was prepared which contained 0.4 g of Compritol 888 ATO (Gattefosse) combined with 0.1 g of Squalane oil (Sigma Aldrich) and 20 mg/mL L-α-Phosphatidylcholine. The 20 mg/mL L-α-Phosphatidylcholine contained either saline for the control subjects or 160 ng of VEGF for the test subjects. The right eye of each test subject was implanted with a VEGF-containing pellet and the left eye of each test subject was implanted with a saline-containing pellet. Each of the pellets was positioned about 2 mm from the corneal limbus. […] The area of neovascular response, vessel length and clock hours of new blood vessel formation of each group were all calculated according to the formula, Area (mm^2)=C/12×3.1416[r^2−(r−L)^2] where, C=the number of clock hours at the limbus involved in the neovascular response, L=the length of the longest neovascular pedicle from the limbus onto the anterior cornea, and r=the radius of the cornea.

Data set [4] relates to MDA-MB-231 human breast cancer cells xenograft. The class given is in vivo. Conditions: nude mice, about 40 mg/kg/day intralesionally for three consecutive days, versus PBS. The procedure:
The effect of apoEdp on tumor growth in vivo was observed by testing its inhibitory effect on xenograft tumor growth post-injection in nude mice.
The test subjects were female nu/nu mice, aged 8-12 weeks, weighing about 20 g. (Charles River Laboratories, Harlan, Indianapolis, Ind.) The mice were weighed, coded, and divided into experimental groups at random. The mice were subcutaneously injected with about 3×10^6 MDA-MB-231 human breast cancer cells in 100 μL PBS. The cells were injected into the right sides of the dorsal area of the test subjects. The tumor size was allowed to reach about 100 mm^3 which took about ten days.
Following injection of the tumor cells, the subjects were given injections for three consecutive days. About 40 mg/kg/day of apoEdp was injected intralesionally into the test subjects, and about […] of sterile PBS was injected intralesionally into the control subjects.
In order to evaluate tumor growth, tumor volume was determined every seven days by measuring the tumor with a digital caliper and calculating tumor volume. Volume was calculated using the formula, V=A×B^2×0.52, where A=longest diameter of the tumor, and B=the shortest diameter of the tumor.

Data set [5] has as its system Flk-1. The data set is described as follows: Western blot, VEGF-induced phosphorylation of Flk-1 in HUVECs. The class given is cell-based, human. As to conditions: apoEdp about 6 to about 50 μM for 1 h, VEGF 10 ng/mL ten minutes, concentration dependent. The procedure:
(§4) The mechanism by which apoEdp inhibits angiogenesis and tumor growth was evaluated using Western Blot Analysis.
(§5) Confluent HUVECs were grown in EBM-2 containing 1% FBS for twenty-four hours. The medium was then replaced with 1% FBS media in the presence or absence of apoEdp in the range of about 6 μM to about 50 μM. The cells were allowed to grow for one hour; then VEGF was added at a concentration of 10 ng/mL. The cells were then incubated for ten minutes to detect the phosphorylated forms of angiogenic signaling molecules.
(§6) The cells were lysed, quantified for protein concentration, and separated on 4% to 20% pre-cast SDS-PAGE gels. Western blots were then performed of the control cell lysates and the apoEdp treated cell lysates. The western blots were performed with antibodies against the phosphorylated and non-phosphorylated (control) forms of Flk-1, c-Src, FAK, Erk1/2, Akt and eNOS. (Santa Cruz Biotechnology, Santa Cruz, Calif.).

Data set [6] has as its system c-Src. The data set is described as follows: Western blot, VEGF-induced phosphorylation of c-Src in HUVECs. The class given is cell-based, human. Conditions: apoEdp about 6 to about 50 μM for 1 h, VEGF 10 ng/mL ten minutes, concentration dependent. The method, then: as §4, §5, §6
The test system of data set [7] is Akt. The data set is described as follows: Western blot, VEGF-induced phosphorylation of Akt in HUVECs. Conditions: apoEdp about 6 to about 50 μM for 1 h, VEGF 10 ng/mL ten minutes, concentration dependent. It counts as cell-based, human. The method, then: as §4, §5, §6
For data set [8], the system named is eNOS. The data set is described as follows: Western blot, VEGF-induced phosphorylation of eNOS in HUVECs. It counts as cell-based, human. As to conditions: apoEdp about 6 to about 50 μM for 1 h, VEGF 10 ng/mL ten minutes, concentration dependent. The method, then:
as §4, §5, §6

For data set [9], the system named is FAK. The data set is described as follows: Western blot, VEGF-induced phosphorylation of FAK in HUVECs. Conditions: apoEdp about 6 to about 50 μM for 1 h, VEGF 10 ng/mL ten minutes, concentration dependent. The class given is cell-based, human. The method, then: as §4, §5, §6
For data set [10], the system named is Erk1/2. The data set is described as follows: Western blot, VEGF-induced phosphorylation of Erk1/2 in HUVECs. The class given is cell-based, human. As to conditions: apoEdp about 6 to about 50 μM for 1 h, VEGF 10 ng/mL ten minutes, concentration dependent. The method, then:
as §4, §5, §6

For data set [11] the following is noted: human, human umbilical vein endothelial cells (HUVECs).
Protocol: The HUVECs, as described above, were seeded in 96-well plates at about 10,000 cells per well. The next day, the cells were starved for 18 hours in EBM-2+1% FBS without any growth supplement. The HUVECs were then incubated with apoEdp in various concentrations in the range of about 6 μM to about 300 μM. An hour later, 50 ng/mL of vascular endothelial growth factor (VEGF) was introduced. The cells were incubated for two days, and cell numbers were determined using the CellTiter96 AQuous One Solution cell proliferation kit. (Promega, Madison, Wis.)

In the case of LRKLRKRLLLRKLRKRLL [apoEdp], the CC50 at 48 h in data set [1] is above 300 µM; in [11] it was around 103 µM. For the same sequence, the “effect on cell viability” value in [2] is reported as “no effect on cell viability”. Further, the “VEGF-induced angiogenesis (area of neovascular response)” value in data set [3] was “significantly inhibited”. For the same sequence, in data set [4], the “tumor growth (tumor volume)” value is reported as “significantly inhibited”. Besides, the “VEGF-induced phosphorylation of Flk-1” value in data set [5] is “significantly inhibited”. Besides, the “VEGF-induced phosphorylation of c-Src” value in data set [6] is listed as “significantly inhibited”. In addition, the “VEGF-induced phosphorylation of Akt” value in [7] was “significantly inhibited”. The “VEGF-induced phosphorylation of eNOS” value in [8] was “significantly inhibited”. The “VEGF-induced phosphorylation of FAK” value in data set [9] is listed as “significantly inhibited”. For the same sequence, the “VEGF-induced phosphorylation of Erk1/2” value in [10] is recorded as “significantly inhibited”.
